Data from patent publication US10301280B2 (Plexxikon Inc., priority 2012, dated 2019).

test system: BaF3-FL KIT D816V or BaF3-FL KIT V560G/D816V cell line; assay: Cell-based assays of c-Kit mutant kinase activity (cell growth, ATPlite); conditions: at least one of the c-kit cell assays of Example 26
Procedure: The c-Kit mutant D816V inhibitors were assessed using an engineered BaF3-FL KIT D816V or BaF3-FL KIT V560G/D816V cell line. The BaF3-FL KIT D816V cell lines were created by introduction of KIT mutant (D816V) full length constructs that render the cells dependent on the introduced kinase for growth. Inhibitors of c-Kit mutant D816V kinase reduce or eliminate the mediated c-kit mutant D816V kinase activation, resulting in reduced cell proliferation of the BaF3-FL Kit mutant D816V cells. This inhibition is measured by the effect of compound concentration on cell growth to assess IC50 values. BaF3-FL KIT D816V cells were seeded at 1×10^4 cells per well of a 96 well cell culture plate in 50 μl of cell culture medium of RPMI Medium 1X (Invitrogen #11875-093) supplemented with 10% FBS (Invitrogen #10438), 1% Non Essential Amino Acids(Invitrogen #11140), 1% Penicillin Streptomycin (Invitrogen #15140), 1% L-Glutamine (Invitrogen #25030-081). Compounds were dissolved in DMSO at a concentration of 5 mM and were serially diluted 1:3 for a total of eight points and added to the cells to a final maximum concentration of 10 μM in 100 μl cell culture medium (final concentration 0.2% DMSO). Cells were also treated with Dasatinib as a positive control. The cells were incubated at 37° C., 5% CO2 for three days. ATPlite Buffer (Perkin Elmer #6016739) and substrate were equilibrated to room temperature, and enzyme/substrate Recombinant Firefly Luciferase/D-Luciferin was reconstituted. The cell plates were equilibrated to room temperature for 30 minutes, then lysed by addition of 25 uL per well of the ATPlite Reagent. The plate was mixed for 5 minutes on a plate shaker to lyse the cells. The plates were read on a Tecan Safire using Luminescence protocol modified to read 0.1 s per well. The luminescence reading assesses the ATP content, which correlates directly with cell number such that the reading as a function of compound concentration is used to determine the IC50 value.
Plasmids P75635 and P75565 were engineered for mammalian cell expression. In both plasmids, full-length human v-kit Hardy-Zuckerman 4 feline sarcoma viral oncogene homolog gene (NCBI accession NM_000222, KIT, residues M1-V976) was subcloned into the pCI-Neo vector (Promega E1841). Plasmid P75635 contains the mutation of residue Aspartic acid 816 to Valine. Plasmid P75565 contains the double mutation of residues Valine 560 to Glycine and Aspartic acid 816 to Valine. The pCI-neo Mammalian Expression Vector carries the human cytomegalovirus (CMV) immediate-early enhancer/promoter region to promote constitutive expression of KIT and contains the neomycin phosphotransferase gene, a selectable marker.
It is understood that the results of these assays may vary as assay conditions are varied. Inhibition levels determined under the conditions described herein represent a relative activity for the compounds tested under the specific conditions employed. The cell based assays are likely to show variability due to the complexity of the system and the sensitivity thereof to any changes in the assay conditions. […] In some instances, the compounds were not tested in all of the assays, or assay results were not valid.

IC50, < 10 µM:
OC(c1cccnc1)c1cnc2[nH]c(-c3ccccc3)cc2c1 (stereo not shown) [P-2001, (2-phenyl-1H-pyrrolo[2,3-b]pyridin-5-yl)-(3-pyridyl)methanol]
O=C(c1cccnc1)c1cnc2[nH]c(-c3ccccc3)cc2c1 [P-2002, (2-phenyl-1H-pyrrolo[2,3-b]pyridin-5-yl)-(3-pyridyl)methanone]
O=C(Nc1cc[nH]n1)c1cnc2[nH]c(-c3ccccc3)cc2c1 [P-2004, 2-phenyl-N-(1H-pyrazol-3-yl)-1H-pyrrolo[2,3-b]pyridine-5-carboxamide]
CCOC(=O)CCNC(=O)Nc1cnc2[nH]c(-c3ccccc3)cc2c1 [P-2006]
Cc1c(-c2ccccc2)n[nH]c1C(=O)Nc1cnc2[nH]c(-c3ccccc3)cc2c1 [P-2008, 4-methyl-3-phenyl-N-(2-phenyl-1H-pyrrolo[2,3-b]pyridin-5-yl)-1H-pyrazole-5-carboxamide]
O=C(Nc1cnc2[nH]c(-c3ccccc3)cc2c1)c1cccnn1 [P-2014, N-(2-phenyl-1H-pyrrolo[2,3-b]pyridin-5-yl)pyridazine-3-carboxamide]
Cc1cccc(Cl)c1C(=O)Nc1cnc2[nH]c(-c3ccc(F)cc3)cc2c1 [P-2022, 2-chloro-N-[2-(4-fluorophenyl)-1H-pyrrolo[2,3-b]pyridin-5-yl]-6-methyl-benzamide]
CCc1n[nH]c(C(=O)Nc2cnc3[nH]c(-c4ccc(F)cc4)cc3c2)c1C [P-2028, 3-ethyl-N-[2-(4-fluorophenyl)-1H-pyrrolo[2,3-b]pyridin-5-yl]-4-methyl-1H-pyrazole-5-carboxamide]
O=C(Nc1cnc2[nH]c(-c3ccc(F)cc3)cc2c1)c1ncn[nH]1 [P-2035, N-[2-(4-fluorophenyl)-1H-pyrrolo[2,3-b]pyridin-5-yl]-1H-1,2,4-triazole-5-carboxamide]
Cc1n[nH]c(C(=O)Nc2cnc3[nH]c(-c4ccnc(N5CCOCC5)c4F)cc3c2)c1C [P-2082, N-[2-(3-fluoro-2-morpholino-4-pyridyl)-1H-pyrrolo[2,3-b]pyridin-5-yl]-3,4-dimethyl-1H-pyrazole-5-carboxamide]
Cc1n[nH]c(C(=O)Nc2cnc3[nH]c(-c4cnn(CC(C)C)c4)cc3c2)c1C [P-2083, N-[2-(1-isobutylpyrazol-4-yl)-1H-pyrrolo[2,3-b]pyridin-5-yl]-3,4-dimethyl-1H-pyrazole-5-carboxamide]
Cc1n[nH]c(C(=O)Nc2cnc3[nH]c(-c4cnn(C)c4C)cc3c2)c1C [P-2084, N-[2-(1,5-dimethylpyrazol-4-yl)-1H-pyrrolo[2,3-b]pyridin-5-yl]-3,4-dimethyl-1H-pyrazole-5-carboxamide]
Cc1n[nH]c(C(=O)Nc2cnc3[nH]c(-c4ccc(C(=O)N(C)C)cc4)cc3c2)c1C [P-2085, N-[2-[4-(dimethylcarbamoyl)phenyl]-1H-pyrrolo[2,3-b]pyridin-5-yl]-3,4-dimethyl-1H-pyrazole-5-carboxamide]
Cc1n[nH]c(C(=O)Nc2cnc3[nH]c(-c4cccc(OC(F)(F)F)c4)cc3c2)c1C [P-2086, 3,4-dimethyl-N-[2-[3-(trifluoromethoxy)phenyl]-1H-pyrrolo[2,3-b]pyridin-5-yl]-1H-pyrazole-5-carboxamide]
Cc1n[nH]c(C(=O)Nc2cnc3[nH]c(-c4cccc(C(=O)N(C)C)c4)cc3c2)c1C [P-2087, N-[2-[3-(dimethylcarbamoyl)phenyl]-1H-pyrrolo[2,3-b]pyridin-5-yl]-3,4-dimethyl-1H-pyrazole-5-carboxamide]
Cc1n[nH]c(C(=O)Nc2cnc3[nH]c(-c4cccnc4)cc3c2)c1C [P-2088, 3,4-dimethyl-N-[2-(3-pyridyl)-1H-pyrrolo[2,3-b]pyridin-5-yl]-1H-pyrazole-5-carboxamide]
Cc1n[nH]c(C(=O)Nc2cnc3[nH]c(-c4ccc(N5CCOCC5)nc4)cc3c2)c1C [P-2089, 3,4-dimethyl-N-[2-(6-morpholino-3-pyridyl)-1H-pyrrolo[2,3-b]pyridin-5-yl]-1H-pyrazole-5-carboxamide]
COc1ccc(-c2cc3cc(NC(=O)c4[nH]nc(C)c4C)cnc3[nH]2)cn1 [P-2090, N-[2-(6-methoxy-3-pyridyl)-1H-pyrrolo[2,3-b]pyridin-5-yl]-3,4-dimethyl-1H-pyrazole-5-carboxamide]
Cc1ncc(-c2cc3cc(NC(=O)c4[nH]nc(C)c4C)cnc3[nH]2)s1 [P-2091, 3,4-dimethyl-N-[2-(2-methylthiazol-5-yl)-1H-pyrrolo[2,3-b]pyridin-5-yl]-1H-pyrazole-5-carboxamide]
Cc1n[nH]c(C(=O)Nc2cnc3[nH]c(-c4ccc(C#N)cc4)cc3c2)c1C [P-2092, N-[2-(4-cyanophenyl)-1H-pyrrolo[2,3-b]pyridin-5-yl]-3,4-dimethyl-1H-pyrazole-5-carboxamide]
Cc1n[nH]c(C(=O)Nc2cnc3[nH]c(-c4ccccc4F)cc3c2)c1C [P-2093, N-[2-(2-fluorophenyl)-1H-pyrrolo[2,3-b]pyridin-5-yl]-3,4-dimethyl-1H-pyrazole-5-carboxamide]
Cc1n[nH]c(C(=O)Nc2cnc3[nH]c(-c4cccc(F)c4)cc3c2)c1C [P-2094, N-[2-(3-fluorophenyl)-1H-pyrrolo[2,3-b]pyridin-5-yl]-3,4-dimethyl-1H-pyrazole-5-carboxamide]
Cc1n[nH]c(C(=O)Nc2cnc3[nH]c(-c4cccc(Cl)c4)cc3c2)c1C [P-2095, N-[2-(3-chlorophenyl)-1H-pyrrolo[2,3-b]pyridin-5-yl]-3,4-dimethyl-1H-pyrazole-5-carboxamide]
Cc1n[nH]c(C(=O)Nc2cnc3[nH]c(-c4ccccc4Cl)cc3c2)c1C [P-2096, N-[2-(2-chlorophenyl)-1H-pyrrolo[2,3-b]pyridin-5-yl]-3,4-dimethyl-1H-pyrazole-5-carboxamide]
Cc1ccccc1-c1cc2cc(NC(=O)c3[nH]nc(C)c3C)cnc2[nH]1 [P-2097, 3,4-dimethyl-N-[2-(o-tolyl)-1H-pyrrolo[2,3-b]pyridin-5-yl]-1H-pyrazole-5-carboxamide]
COc1cccc(-c2cc3cc(NC(=O)c4[nH]nc(C)c4C)cnc3[nH]2)c1 [P-2098, N-[2-(3-methoxyphenyl)-1H-pyrrolo[2,3-b]pyridin-5-yl]-3,4-dimethyl-1H-pyrazole-5-carboxamide]
COc1ccc(-c2cc3cc(NC(=O)c4[nH]nc(C)c4C)cnc3[nH]2)cc1 [P-2099, N-[2-(4-methoxyphenyl)-1H-pyrrolo[2,3-b]pyridin-5-yl]-3,4-dimethyl-1H-pyrazole-5-carboxamide]
CC(=O)Nc1cccc(-c2cc3cc(NC(=O)c4[nH]nc(C)c4C)cnc3[nH]2)c1 [P-2100, N-[2-(3-acetamidophenyl)-1H-pyrrolo[2,3-b]pyridin-5-yl]-3,4-dimethyl-1H-pyrazole-5-carboxamide]
Cc1n[nH]c(C(=O)Nc2cnc3[nH]c(-c4ccc(C(=O)N5CCCC5)cc4)cc3c2)c1C [P-2101, 3,4-dimethyl-N-[2-[4-(pyrrolidine-1-carbonyl)phenyl]-1H-pyrrolo[2,3-b]pyridin-5-yl]-1H-pyrazole-5-carboxamide]
COCCCOc1ccc(-c2cc3cc(NC(=O)c4[nH]nc(C)c4C)cnc3[nH]2)cc1 [P-2102, N-[2-[4-(3-methoxypropoxy)phenyl]-1H-pyrrolo[2,3-b]pyridin-5-yl]-3,4-dimethyl-1H-pyrazole-5-carboxamide]
Cc1n[nH]c(C(=O)Nc2cnc3[nH]c(-c4ccc(N5CCN(C)CC5)cc4)cc3c2)c1C [P-2104, 3,4-dimethyl-N-[2-[4-(4-methylpiperazin-1-yl)phenyl]-1H-pyrrolo[2,3-b]pyridin-5-yl]-1H-pyrazole-5-carboxamide]
